Experiment [1] has as its system Mr = 72,000 brush border membrane protein. Kind of experiment: Phosphorylation of 72,000 Mr renal brush border membrane protein from treated rats (SDS-PAGE, autoradiography, densitometry). The settings on record: for relative area units under the peak in the densitometry tracings of autoradiogram of the Mr = 72,000 brush border membrane protein: mean ± SEM. In kind it is in vivo, rat. The method, then:
Male Sprague-Dawley rats, weighing 125-150 g (Charles River, Wilmington, Mass.), were randomly divided into three groups: (1) DOCA-salt group-rats underwent unilateral nephrectomy and were given an initial injection of 12.5 mg of deoxycorticosterone acetate (DOCA) followed by 6.5 mg weekly which was coupled with 1 percent saline as drinking water ([…] et al. Altered Activity of the Sodium-Potassium Pump in Arteries of Rats with Steroid Hypertension, Clin. Sci. Mol. Med., 55:pp. 41s-43s (1978); (2) Uninephrectomized control group (UNE)-rats underwent unilateral nephrectomy and were given tap water ad libitum; (3) Normal group-normal rats drank tap water ad libitum and were not subjected to surgery. All three groups were maintained on normal rat chow. Systolic blood pressure was measured weekly by the tail-cuff method. […] J. Biol. Chem. 257:pp 992-99 (1982). […] Anal Biochem, 72:pp. 248-54 (1976). Autoradiography and densitometry were performed in accordance with […], et al., Phosphorylation of Endogenous Protein in Primate Kidney. […] Biochem. Physiol. 103B:pp 267-73 (1992). […] Data is expressed as mean±SEM, with statistical significance being calculated by Student's t test and the ANOVA test.

Experiment [2] can be described thus: Systolic blood pressure by tail-cuff method in DOCA-salt hypertensive rats. It counts as in vivo, rat. Particulars: mean±SEM. The procedure: Male Sprague-Dawley rats, weighing 125-150 g (Charles River, Wilmington, Mass.), were randomly divided into three groups: (1) DOCA-salt group-rats underwent unilateral nephrectomy and were given an initial injection of 12.5 mg of deoxycorticosterone acetate (DOCA) followed by 6.5 mg weekly which was coupled with 1 percent saline as drinking water (Pamani et al. Altered Activity of the Sodium-Potassium Pump in Arteries of Rats with Steroid Hypertension, Clin. Sci. Mol. Med., 55:pp. 41s-43s (1978); (2) Uninephrectomized control group (UNE)-rats underwent unilateral nephrectomy and were given tap water ad libitum; (3) Normal group-normal rats drank tap water ad libitum and were not subjected to surgery. All three groups were maintained on normal rat chow. Systolic blood pressure was measured weekly by the tail-cuff method.
Referring to FIG. 1, there is shown a plot of systolic blood pressure in mm Hg versus time in days. The study involved ten rats in each of the three DOCA categories: (a) DOCA-salt; (b) UNE-uninephrectomized; and (c) NOR, normal group. The 2K1C study involved eight rats in each of the three groups: (a) 2K1C; (b) SHAM, sham-operated group; and (c) NOR, normal group.
The systolic blood pressure in the 2K1C rats increased from 121.4±1.7 mm Hg to 137.6±3.0 mm Hg by the first week after surgery and to 173.5±4.4 mm Hg by the 21st day (p<0.001). […]

Experiment [3] has as its system Mr = 72,000 brush border membrane protein. Particulars: 10 μM cyclic AMP.
Source text: The preparation of the rat renal proximal brush border membrane vesicles was accomplished in the following manner: When the systolic blood pressure in the DOCA and the 2K1C rat groups became elevated compared with each of the control groups (usually in 3-4 weeks), the kidney cortex was removed to prepare the proximal brush border membrane vesicles by a calcium precipitation method as described in Kempson et al., Inhibition of Renal Brush Border Phosphate Transport and Stimulation of Renal Gluconeogenesis by Cyclic AMP and Parathyroid Hormone, Biochem., Pharmacol., 32:pp. 1533-37 (1983). Vesicles were utilized only if there was at least an 8-fold enrichment in gamma-glutamyl transpeptidase activity in the proximal brush border membrane fraction compared to the original cortical homogenate. […]
The test results reported herein were determined by SDS polyacrylamide gel electrophoresis, autoradiography and densitometry. […] Protein concentration was determined by the method of Bradford using bovine serum albumin as a standard.
Autoradiography and densitometry were performed in accordance with Laminski, et al., Phosphorylation of Endogenous Protein in Primate Kidney. […] Scan traces were recorded with an Ultroscan XL laser densitometer (Pharmacia, LKB) and analyzed by using the computer GelScan XL Software (Version 2.1, Pharmacia).

Data on two compounds can be found in patent publication US20030044856A1, “Method of determining volume dependent hypertension through protein reduction in phosphorylation or concentration and related apparatus” (priority 1997, published 2003).

With `CC(=O)OCC(=O)[C@H]1CC[C@H]2[C@@H]3CCC4=CC(=O)CC[C@]4(C)[C@H]3CC[C@]12C` [DOCA, deoxycorticosterone acetate], the “relative area units under the peak in the densitometry tracings of autoradiogram of the Mr = 72,000 brush border membrane protein” value in experiment [1] (+cAMP (10 μM cyclic AMP in incubation mixture)) is 1.218 ± 0.33 relative area units; in experiment [1] (−cAMP (no cyclic AMP in incubation mixture)) it was 1.389 ± 0.37 relative area units. In addition, the “phosphorylation of the Mr=72,000 protein compared with UNE and normal rats” value in experiment [1] (DOCA group rats, p<0.01) was “significant attenuation”. Besides, the systolic blood pressure came to 128.9±2.1 mm Hg in experiment [2] (7th day of treatment) and 188.2±5.3 mm Hg in experiment [2] (21st day, p<0.001).

In the case of `Nc1ncnc2c1ncn2[C@@H]1O[C@@H]2COP(=O)(O)O[C@H]2[C@H]1O` [cyclic AMP], the “influence of cAMP on phosphorylation of the Mr=72,000 protein” value in experiment [3] (membranes from 2K1C, Sham and Normal rats) is “not influenced”. Also, the “effect of addition of cyclic AMP on phosphorylation of the Mr=72,000 protein” value in experiment [3] (membranes from DOCA, UNE and Normal rats) was “did not affect”.
